According to patent publication US9150575B2, “Piperidinylpyrazolopyridine derivative” (Daiichi Sankyo Company, Limited, priority 2012, dated 2015):

How the values were obtained:
[1] = molecular target: T1, LCAT (Homo sapiens, UniProt P04180); assay: LCAT Activity Measurement (In Vitro); type: biochemical; conditions: EC50 of LCAT activation; HDL3 fraction from plasma of a healthy person as enzyme source and acceptor; [14C]cholesterol; 37° C., approximately 16 hours
T1 construct: The obtained fraction was dialyzed against phosphate-buffered saline (pH 7.4) and used as an enzyme source and an acceptor for LCAT; from tissue; host or cells: HDL3 fraction (1.125<specific gravity<1.210 g/mL) of plasma from a healthy person
T1 sequence (P04180 25-440): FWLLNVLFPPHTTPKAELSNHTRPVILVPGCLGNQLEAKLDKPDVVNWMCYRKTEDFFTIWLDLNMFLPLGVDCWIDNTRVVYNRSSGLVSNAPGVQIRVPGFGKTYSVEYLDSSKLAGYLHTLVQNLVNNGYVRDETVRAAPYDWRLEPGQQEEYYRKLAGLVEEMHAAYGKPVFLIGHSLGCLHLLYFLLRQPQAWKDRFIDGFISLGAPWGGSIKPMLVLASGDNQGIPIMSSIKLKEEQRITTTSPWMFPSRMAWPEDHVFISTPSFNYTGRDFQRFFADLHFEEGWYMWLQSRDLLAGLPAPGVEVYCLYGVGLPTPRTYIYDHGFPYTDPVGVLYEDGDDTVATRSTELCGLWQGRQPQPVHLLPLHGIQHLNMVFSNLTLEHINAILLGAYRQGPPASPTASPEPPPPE
In short: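 Human plasma HDL3 (1 mg/mL, PBS pH 7.4) served as enzyme and acceptor with [14C]cholesterol, 0.5 mM DTNB, 12.5 mM mercaptoethanol and 0.6% BSA; compounds in DMSO, incubated ~16 h at 37 °C. Cholesterol oleate radioactivity quantified after extraction and TLC; EC50 of activation fitted relative to no-drug control.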

[2] = system: cynomolgus monkey; assay: Drug Efficacy Test in Cynomolgus Monkeys; type: in vivo; conditions: oral, single dose of 10 mg/kg, compared with before administration, from AUC before administration and 24 hours after administration
Procedure: Each test drug was dissolved in a propylene glycol (Sigma-Aldrich Corp.)-Tween 80 (Sigma-Aldrich Corp.) mixed solution [4/1 (v/v)] or a 0.5% (w/v) methylcellulose aqueous solution, and the solution was orally administered to a cynomolgus monkey for 1 or 7 days. At 1 or 7 day of administration period, blood was collected before administration and after administration, and plasma was obtained. The content of cholesterol in the plasma was measured using a commercially available assay kit (Cholesterol-E Wako, Wako Pure Chemical Industries, Ltd.). The lipoprotein profile was analyzed by HPLC (column: LipopropakXL, manufactured by Tosoh Corp.). The contents of HDL cholesterol and non-HDL cholesterol were calculated according to the following calculation expression: Content of HDL cholesterol=Content of cholesterol in the plasma×(Peak area of HDL cholesterol/Total sum of peaks) Content of non-HDL cholesterol=Content of cholesterol in the plasma×(Peak area of non-HDL cholesterol/Total sum of peaks)
The rate (%) of increase in HDL level after the administration of a single dose of 10 mg/kg compared with before administration was determined from AUC before administration and 24 hours after administration.

Compound: O=C1CC(O)(C(F)(F)F)c2c(C3CCN(c4ccc(Cl)cn4)CC3)n[nH]c2N1 (single isomer, unassigned; (-)) [Compound 50-1, (−)-3-[1-(5-Chloropyridin-2-yl)piperidin-4-yl]-4-hydroxy-4-(trifluoromethyl)-1,4,5,7-tetrahydro-6H-pyrazolo[3,4-b]pyridin-6-one]
- EC50 [1]: 45 nM
- Rate of increase in HDL level after administration of single dose [2]: 433%

Compound: O=C1CC(O)(C(F)(F)F)c2c(C3CCN(c4ccc(OC(F)F)cc4)CC3)n[nH]c2N1 (single isomer, unassigned; (-)) [Compound 56-1, (−)-3-{1-[4-(Difluoromethoxy)phenyl]piperidin-4-yl}-4-hydroxy-4-(trifluoromethyl)-1,4,5,7-tetrahydro-6H-pyrazolo[3,4-b]pyridin-6-one]
- EC50 [1]: 45 nM
- Rate of increase in HDL level after administration of single dose [2]: 644%

Compound: O=C1CC(O)(C(F)(F)F)c2c(C3CCN(c4cccc(C(F)(F)F)n4)CC3)n[nH]c2N1 (centres unmarked) [Example 7, 4-Hydroxy-4-(trifluoromethyl)-3-{1-[6-(trifluoromethyl)pyridin-2-yl]piperidin-4-yl}-1,4,5,7-tetrahydro-6H-pyrazolo[3,4-b]pyridin-6-one]
- EC50 [1]: 48 nM
- Rate of increase in HDL level after administration of single dose [2]: 334%

Compound: O=C1CC(O)(C(F)(F)F)c2c(C3CCN(c4ccc(C(F)(F)F)cn4)CC3)n[nH]c2N1 (centres unmarked) [Example 8, 4-Hydroxy-4-(trifluoromethyl)-3-{1-[5-(trifluoromethyl)pyridin-2-yl]piperidin-4-yl}-1,4,5,7-tetrahydro-6H-pyrazolo[3,4-b]pyridin-6-one]
- EC50 [1]: 21 nM
- Rate of increase in HDL level after administration of single dose [2]: 531%

Compound: CN(C)c1cc(N2CCC(c3n[nH]c4c3C(O)(C(F)(F)F)CC(=O)N4)CC2)nc(C(F)(F)F)n1 (centres unmarked) [Example 86, 3-{1-[6-(Dimethylamino)-2-(trifluoromethyl)pyrimidin-4-yl]piperidin-4-yl}-4-hydroxy-4-(trifluoromethyl)-1,4,5,7-tetrahydro-6H-pyrazolo[3,4-b]pyridin-6-one]
- EC50 [1]: 140 nM

Compound: Cc1nc(N2CCC(c3n[nH]c4c3C(O)(C(F)(F)F)CC(=O)N4)CC2)cc(C(F)(F)F)n1 (centres unmarked) [Example 87, 4-Hydroxy-3-{1-[2-methyl-6-(trifluoromethyl)pyrimidin-4-yl]piperidin-4-yl}-4-(trifluoromethyl)-1,4,5,7-tetrahydro-6H-pyrazolo[3,4-b]pyridin-6-one]
- EC50 [1]: 300 nM

Compound: CC(C)c1nc(N2CCC(c3n[nH]c4c3C(O)(C(F)(F)F)CC(=O)N4)CC2)cc(C(F)(F)F)n1 (centres unmarked) [Example 88, 4-Hydroxy-3-{1-[2-(propan-2-yl)-6-(trifluoromethyl)pyrimidin-4-yl]piperidin-4-yl}-4-(trifluoromethyl)-1,4,5,7-tetrahydro-6H-pyrazolo[3,4-b]pyridin-6-one]
- EC50 [1]: 88 nM

Compound: O=C1CC(O)(C(F)(F)F)c2c(C3CCN(c4ncc(-c5ccccc5)s4)CC3)n[nH]c2N1 (centres unmarked) [Example 89, 4-Hydroxy-3-[1-(5-phenyl-1,3-thiazol-2-yl)piperidin-4-yl]-4-(trifluoromethyl)-1,4,5,7-tetrahydro-6H-pyrazolo[3,4-b]pyridin-6-one]
- EC50 [1]: 110 nM

Compound: O=C1CC(O)(C(F)(F)F)c2c(C3CCN(c4nc(-c5ccccc5)cs4)CC3)n[nH]c2N1 (centres unmarked) [Example 90, 4-Hydroxy-3-[1-(4-phenyl-1,3-thiazol-2-yl)piperidin-4-yl]-4-(trifluoromethyl)-1,4,5,7-tetrahydro-6H-pyrazolo[3,4-b]pyridin-6-one]
- EC50 [1]: 310 nM

Compound: CCOC(=O)c1oc(N2CCC(c3n[nH]c4c3C(O)(C(F)(F)F)CC(=O)N4)CC2)nc1C(F)(F)F (centres unmarked) [Example 91, Ethyl 2-{4-[4-hydroxy-6-oxo-4-(trifluoromethyl)-4,5,6,7-tetrahydro-1H-pyrazolo[3,4-b]pyridin-3-yl]piperidin-1-yl}-4-(trifluoromethyl)-1,3-oxazole-5-carboxylate]
- EC50 [1]: 77 nM

Compound: O=C1CC(O)(C(F)(F)F)c2c(C3CCN(c4cc(C(F)(F)F)nc(C5CC5)n4)CC3)n[nH]c2N1 (centres unmarked) [Example 92, 3-{1-[2-Cyclopropyl-6-(trifluoromethyl)pyrimidin-4-yl]piperidin-4-yl}-4-hydroxy-4-(trifluoromethyl)-1,4,5,7-tetrahydro-6H-pyrazolo[3,4-b]pyridin-6-one]
- EC50 [1]: 210 nM

Compound: CN(C)c1nc(N2CCC(c3n[nH]c4c3C(O)(C(F)(F)F)CC(=O)N4)CC2)cc(C(F)(F)F)n1 (centres unmarked) [Example 93, 3-{1-[2-(Dimethylamino)-6-(trifluoromethyl)pyrimidin-4-yl]piperidin-4-yl}-4-hydroxy-4-(trifluoromethyl)-1,4,5,7-tetrahydro-6H-pyrazolo[3,4-b]pyridin-6-one]
- EC50 [1]: 84 nM

Compound: N#Cc1nc(N2CCC(c3n[nH]c4c3C(O)(C(F)(F)F)CC(=O)N4)CC2)ccc1C(F)(F)F (centres unmarked) [Example 94, 6-{4-[4-Hydroxy-6-oxo-4-(trifluoromethyl)-4,5,6,7-tetrahydro-1H-pyrazolo[3,4-b]pyridin-3-yl]piperidin-1-yl}-3-(trifluoro)pyridine-2-carbonitrile]
- EC50 [1]: 15 nM

Compound: N#Cc1cnc(N2CCC(c3n[nH]c4c3C(O)(C(F)(F)F)CC(=O)N4)CC2)cc1C(F)(F)F (centres unmarked) [Example 95, 6-{4-[4-Hydroxy-6-oxo-4-(trifluoromethyl)-4,5,6,7-tetrahydro-1H-pyrazolo[3,4-b]pyridin-3-yl]piperidin-1-yl}-4-(trifluoromethyl)pyridine-3-carbonitrile]
- EC50 [1]: 37 nM

Compound: O=C1CC(O)(C(F)(F)F)c2c(C3CCN(c4ncc(C(F)(F)F)cc4F)CC3)n[nH]c2N1 (centres unmarked) [Example 96, 3-{1-[3-Fluoro-5-(trifluoromethyl)pyridin-2-yl]piperidin-4-yl}-4-hydroxy-4-(trifluoromethyl)-1,4,5,7-tetrahydro-6H-pyrazolo[3,4-b]pyridin-6-one]
- EC50 [1]: 220 nM

Compound: O=C1CC(O)(C(F)(F)F)c2c(C3CCN(c4ccc(C(F)(F)F)c(F)n4)CC3)n[nH]c2N1 (centres unmarked) [Example 97, 3-{1-[6-Fluoro-5-(trifluoromethyl)pyridin-2-yl]piperidin-4-yl}-4-hydroxy-4-(trifluoromethyl)-1,4,5,7-tetrahydro-6H-pyrazolo[3,4-b]pyridin-6-one]
- EC50 [1]: 35 nM

Compound: O=C1CC(O)(C(F)(F)F)c2c(C3CCN(c4ccc(C5CC5)cn4)CC3)n[nH]c2N1 (centres unmarked) [Example 99, 3-[1-(5-Cyclopropylpyridin-2-yl)piperidin-4-yl]-4-hydroxy-4-(trifluoromethyl)-1,4,5,7-tetrahydro-6H-pyrazolo[3,4-b]pyridin-6-one]
- EC50 [1]: 75 nM

Compound: N#Cc1cccnc1N1CCC(c2n[nH]c3c2C(O)(C(F)(F)F)CC(=O)N3)CC1 (centres unmarked) [Example 100, 2-{4-[4-Hydroxy-6-oxo-4-(trifluoromethyl)-4,5,6,7-tetrahydro-1H-pyrazolo[3,4-b]pyridin-3-yl]piperidin-1-yl}pyridine-3-carbonitrile]
- EC50 [1]: 1550 nM

Compound: N#Cc1cc(C(F)(F)F)cnc1N1CCC(c2n[nH]c3c2C(O)(C(F)(F)F)CC(=O)N3)CC1 (centres unmarked) [Example 101, 2-{4-[4-Hydroxy-6-oxo-4-(trifluoromethyl)-4,5,6,7-tetrahydro-1H-pyrazolo[3,4-b]pyridin-3-yl]piperidin-1-yl}-5-(trifluoromethyl)pyridine-3-carbonitrile]
- EC50 [1]: 170 nM

Compound: O=C1CC(O)(C(F)(F)F)c2c(C3CCN(c4cc(I)c(C(F)(F)F)cn4)CC3)n[nH]c2N1 (centres unmarked) [Example 102, 4-Hydroxy-3-{1-[4-iodo-5-(trifluoromethyl)pyridin-2-yl]piperidin-4-yl}-4-(trifluoromethyl)-1,4,5,7-tetrahydro-6H-pyrazolo[3,4-b]pyridin-6-one]
- EC50 [1]: 21 nM

Compound: N#Cc1cnc(N2CCC(c3n[nH]c4c3C(O)(C(F)(F)F)CC(=O)N4)CC2)c(C(F)(F)F)c1 (centres unmarked) [Example 104, 6-{4-[4-Hydroxy-6-oxo-4-(trifluoromethyl)-4,5,6,7-tetrahydro-1H-pyrazolo[3,4-b]pyridin-3-yl]piperidin-1-yl}-5-(trifluoromethyl)pyridine-3-carbonitrile]
- EC50 [1]: 1100 nM

Compound: O=C1CC(O)(C(F)(F)F)c2c(C3CCN(c4ccc(-c5ccccc5)nn4)CC3)n[nH]c2N1 (centres unmarked) [Example 105, 4-Hydroxy-3-[1-(6-phenylpyridazin-3-yl)piperidin-4-yl]-4-(trifluoromethyl)-1,4,5,7-tetrahydro-6H-pyrazolo[3,4-b]pyridin-6-one]
- EC50 [1]: 27 nM
